Results from paper PMC11329928, “Design, synthesis and structure-activity relationship (SAR) studies of an unusual class of non-cationic fatty amine-tripeptide conjugates as novel synthetic antimicrobial agents” (Frontiers in Pharmacology, 2024).
Counter-ions that a name gives are not always drawn. Like-named read-outs stand apart in the source and are kept apart here.

Experiments:
Format in all cases: cell-based
[1] = system: Streptococcus pneumoniae R6; test: Growth inhibition / lysis screening of planktonic cultures (OD550/600); set-up: key: (+++) full inhibition; (++) partial inhibition; (+) growth retardation; -: (−) no effect; conditions: S. pneumoniae R6, 50 and 100 μM compound added at early logarithmic phase (T1), OD550/600 followed 10 h, 37°C
Protocol: (§1) Planktonic cultures of selected pathogens (S. pneumoniae R6, S. pyogenes ^T, Staphylococcus aureus ^T, Escherichia coli DH10B, and Pseudomonas aeruginosa PAO1 strains) on early logarithmic-phase (T1) were assayed for their sensitivity to a broad range of DICAM compounds, as indicated in Table 1. Their bacteriostatic or lytic effect was first tested by measuring the variation of the OD550/600 as a function of time (10 h) when (50/100 μM) DICAMs were added, compared to untreated controls. The screening results, summarized in Table 1, evidenced that a potent antimicrobial activity may exist even when the negative charge of the peptide was higher than in the prototype compounds.
(§2) Susceptibility to DICAMs was first tested by growth-inhibition assays at 50 and 100 μM of compound. Briefly, working solutions at 5 mM or 10 mM DICAM in pure DMSO were prepared from DICAM stocks (40 mM in pure DMSO) and diluted with fresh culture medium to 5× the desired final concentration. Aliquots (50 µL) of these solutions were added to 200 µL of bacterium cultures grown to early exponential phase (OD550/600 c. a. 0.15–0.2 in sterile 96-well plates (Cultek, Spain). Incubation continued for 10 h at 37°C and turbidity (OD550/600) values were measured every 20 min to monitor growth and lysis, using a VersaMax microplate reader (Molecular Devices; United Kingdom). Next, the activity dependence on DICAM’s dose was examined by measuring the turbidity of treated and untreated cultures as a function of time. Also, the decay of bacterial viability (CFU/mL) at selected times of treatment was assessed by colony counting on LB-agar or TSA plates after overnight incubation at 37°C. By default, 10 μL of 10-fold serially diluted samples were plated, which set the lower detection limit at 10^2 CFU/mL (10^1 CFU/mL when 100 μL of the undiluted sample was seeded).

[2] = system: Staphylococcus aureus T; test: Growth inhibition screening of planktonic cultures (OD550/600); set-up: key: (+++) full inhibition; (++) partial inhibition; (+) growth retardation; -: (−) no effect; conditions: S. aureus T, 50 and 100 μM compound added at T1, OD550/600 followed 10 h, 37°C
Protocol: as §1, §2

[3] = system: Streptococcus pyogenes T; test: as above; set-up: key: (+++) full inhibition; (++) partial inhibition; (+) growth retardation; -: (−) no effect; conditions: S. pyogenes T, 50 and 100 μM compound added at T1, OD550/600 followed 10 h, 37°C
Protocol: as §1, §2

[4] = system: Pseudomonas aeruginosa PAO1; test: as above; set-up: key: (+++) full inhibition; (++) partial inhibition; (+) growth retardation; -: (−) no effect; conditions: P. aeruginosa PAO1, 50 and 100 μM compound added at T1, OD550/600 followed 10 h, 37°C
Protocol: as §1, §2

[5] = system: Escherichia coli DH10B; test: as above; set-up: key: (+++) full inhibition; (++) partial inhibition; (+) growth retardation; -: (−) no effect; conditions: E. coli DH10B, 50 and 100 μM compound added at T1, OD550/600 followed 10 h, 37°C
Protocol: as §1, §2

[6] = system: human lung carcinoma epithelial cells A549
Protocol: (§3) DICAM’s cytotoxicity was determined employing a modified MTT assay as described elsewhere ([Antúnez-Mojica et al., 2016]) using human lung carcinoma epithelial cells A549, human fetal lung fibroblasts IMR-90, and human HeLa cervix carcinoma cells treated with increasing concentrations of DICAMs (0.8–200 µM range). A549 cells were grown in RPMI 1640 (Gibco; Fisher Scientific, Spain) supplemented with 10% FCS, 2 mM glutamine, 100 IU/mL penicillin and 100 μg/mL streptomycin. IMR-90 and HeLa cells were cultured in DMEM (Gibco; Fisher Scientific, Spain) supplemented with 10% FCS, 2 mM L-glutamine, 1 mM pyruvate, […] penicillin, 100 μg/mL streptomycin and 40 μg/mL gentamycin. Cell viability was assessed after 48 h exposure to DICAMs. Vinblastine was used as a positive control. IC50 value is the concentration that gives 50% inhibition of cell growth and was determined using SigmaPlot (Systat) fitting to a Four Parameter Logistic curve.

[7] = system: human HeLa cervix carcinoma cells
Protocol: as §3

| Compound | Growth halt or lysis (50/100 μM), Spn [1] | Growth halt or lysis (50/100 μM), Sa T [2] | Growth halt or lysis (50/100 μM), Spy T [3] | Growth halt or lysis (50/100 μM), Pa [4] | Growth halt or lysis (50/100 μM), Ec [5] | IC50 ([6]; 48 h) | IC50 ([7]; 48 h) | IC50 ([6]; modified MTT, 48 h exposure, 0.8–200 µM, four parameter logistic fit, ± SD, at least three independent experiments, read-out: IC50 A549) | IC50 ([7]; modified MTT, 48 h exposure, 0.8–200 µM, four parameter logistic fit, ± SD, at least three independent experiments, read-out: IC50 HeLa) |
| --- | --- | --- | --- | --- | --- | --- | --- | --- | --- |
| CCCCCCCCCCCCCCCCCCNC(=O)[C@H](C)NC(=O)[C@H]1CCCN1C(=O)[C@H](C)N [DICAM 14, Ala- Pro -Ala-NH-C18H37 · HCl] | +++ | +++ | +++ | - | - | 8 ± 0.3 µM | 6.3 ± 0.7 µM |  |  |
| Ala - Pro -Glu-NH-C18H37 · HCl [DICAM 23] | +++ | ++ | +++ | - | - |  |  | 80.6 ± 0.2 µM | 13.4 ± 0.9 µM |
| CCCCCCCCCCCCCCCCCCNC(=O)[C@H](CCC(=O)O)NC(=O)[C@H]1CCCN1C(=O)[C@H](C)N [DICAM 4, Ala- Pro -Glu-NH-C18H37 ·HCl] | +++ | ++ | +++ | - | - | ≥ 25 µM | 32 ± 2 µM |  |  |
| CCCCCCCCCCCCCCCCCCNC(=O)[C@H](CCC(=O)O)NC(=O)[C@H]1CCCN1C(=O)[C@@H](N)CCCN [DICAM 22, Orn- Pro -Glu-NH-C18H37 · HCl] | +++ | + | ++ | - | - | 59.6 ± 0.9 µM | 57.2 ± 0.4 µM |  |  |
| CCCCCCCCCCCCCCCCCCNC(=O)[C@H](CCC(=O)O)NC(=O)[C@H]1CCCN1C(=O)[C@H](CC(N)=O)NC(=O)OCc1ccccc1 [DICAM 1, Cbz-Asn- Pro -Glu-NH-C18H37] | +++ |  | +++ | - |  | 45 ± 6 µM | 29 ± 2 µM |  |  |
| CCCCCCCCCCCCCCCCCCNC(=O)[C@H](CCC(=O)O)NC(=O)[C@H]1CCCN1C(=O)[C@H](CCCN)NC(=O)OCc1ccccc1 [DICAM 21, Cbz-Orn- Pro -Glu-NH-C18H37] | +++ | + | +++ | - | - |  |  |  |  |
| CCCCCCCCCCCCCCCCCCNC(=O)[C@H](CCC(=O)O)NC(=O)[C@H]1CCCN1C(=O)[C@@H](N)CCC(=O)O [DICAM 20, Glu- Pro -Glu-NH-C18H37 · HCl] | +++ | ++ | +++ | - | - | 91 ± 2 µM | 59.2 ± 0.1 µM |  |  |
| CCCCCCCCCCCCCCCCCCNC(=O)[C@H](CCC(=O)O)NC(=O)[C@H]1CCCN1C(=O)[C@H](C)NC(=O)OCc1ccccc1 [DICAM 3, Cbz-Ala- Pro -Glu-NH-C18H37] | +++ | - | +++ | - | - | 59.2 ± 0.7 µM | 49.2 ± 1.5 µM |  |  |
| CCCCCCCCCCCCCCCCNC(=O)[C@H](CCC(=O)O)NC(=O)[C@H]1CCCN1C(=O)[C@H](CC(N)=O)NC(=O)OCc1ccccc1 [DICAM 10, Cbz-Asn- Pro -Glu-NH-C16H33] | +++ |  | +++ | - |  | 35 ± 2 µM | 28 ± 0.7 µM |  |  |
| CCCCCCCCCCCCCCCCCCNC(=O)[C@H](CCC(=O)O)NC(=O)[C@H]1CCCN1C(=O)[C@H](CCC(=O)O)NC(=O)OCc1ccccc1 [DICAM 19, Cbz-Glu- Pro -Glu-NH-C18H37] | +++ | + | +++ | - | - | 45 ± 2 µM | 46 ± 2 µM |  |  |
| CCCCCCCCCCCCCCCCCCNC(=O)[C@H](CCC(=O)O)NC(=O)[C@H]1CCCN1C(=O)[C@@H](N)CC(N)=O [DICAM 2, Asn- Pro -Glu-NH-C18H37 ·HCl] | +++ | ++ | +++ | - | - | 42 ± 5 µM | 42 ± 2 µM |  |  |
| CCCCCCCCCCCCCCCCCCNC(=O)[C@H](CCC(=O)O)NC(=O)[C@H]1CCCN1C(=O)[C@H](C)NC(C)=O [DICAM 24, Ac-Ala- Pro -Glu-NH-C18H37] | +++ | ++ | +++ |  | - | 40 ± 3 µM | 28.4 ± 0.2 µM |  |  |
